Assays:
[1] = system: SCC-25 cells; settings: 0-1400 μg/ml, 24 hours
Experimental: Human oral squamous cell carcinoma (OSCC)SCC-25 cells (commercially available from ATCC under the number CRL-1628) were cultured in DMEM/F12 supplemented with 10% FBS.

[2] = system: LoVo-OXAR cells; settings: single agent: compound (II) 2000 μg/ml or oxaliplatin 50 μg/ml, 48 hours
[3] = system: PANC-1 cells; settings: six days
Experimental: (§1) Human pancreatic carcinoma MIA PaCa-2 cells (commercially available from ATCC under the number CRL-1420) were cultured in DMEM supplemented with 10% FBS, 1 mM sodium pyruvate, and 2.5% horse serum. Human pancreatic epithelioid carcinoma PANC-1 cells (commercially available from ATCC under the number CRL-1469) were cultured in DMEM supplemented with 10% FBS and 1 mM sodium pyruvate.

[4] = system: MIA PaCa-2 cells; settings: six days
Experimental: as §1

[5] = system: LoVo-parental cells; settings: single agent: compound (II) 500 μg/ml or oxaliplatin 50 μg/ml, 72 hours
[6] = system: EMT markers in LoVo-parental cells; settings: qRT-PCR
Excerpt: (§2) Vimentin and E-cadherin are molecular markers linked to tumor progression through their roles in EMT, which is a pathological process contributing to migration and invasion of cancer cells and tumor progression. Vimentin is a key component of intermediate filaments, which helps maintain cellular integrity and resistance to stress. E-cadherin plays a role in maintaining epithelial phenotypes by mediating contact inhibition when cells proliferate and reach confluence. To further investigate the influence of the compound (II) on EMT marker expression, western blotting, immunofluorescence detection, and quantitative real-time reverse transcription polymerase chain reaction (qRT-PCR) were performed in LoVo-parental and LoVo-OXAR cells treated with various doses of the compound (II) for 24 hours.
(§3) Total RNA from the cells after the indicated treatments was extracted using the GeneJET RNA purification kit (ThermoFisher Scientific, Lithuania) and reverse transcribed to cDNA using a GScript First-Strand Synthesis Kit, a cDNA synthesis kit, and Oligo-dT primers according to the manufacturer's instructions. RT-PCR was performed using ORA^T SEE qPCR Green ROX L Mix, 2× (HighQu, USA). Primers for EMT markers (Vimentin, E-cadherin, TJP1, and FN1) and GAPDH (as endogenous control) were synthesized by Bio-ProTech based the sequences in TABLE 1. The 2^−ΔΔCt method was used to calculate a relative fold change in gene expression. […] TJP1 is a marker of epithelial cells that disappears during EMT and cancer development. In contrast, FN1 is involved in the occurrence and development of various tumors and acts as a critical gene in gastric cancer.

[7] = system: EMT markers in LoVo-OXAR cells; settings: qRT-PCR
Excerpt: as §2, §3

[8] = system: ER stress markers in LoVo-OXAR cells; settings: 2000 μg/ml, 24 hours
Experimental: Western blot analysis was conducted using primary antibodies against protein kinase RNA-like endoplasmic reticulum kinase (PERK), phosphorylated PERK (p-PERK), alpha subunit of eukaryotic translation initiation factor 2 (eIF2α), phosphorylated eIF2α (p-eIF2α), activating transcription factor 4 (ATF4), proliferating cell nuclear antigen (PCNA), glyceraldehyde 3-phosphate dehydrogenase (GAPDH), and caspase 3 (San-ta Cruz Biotechnology Inc. Santa Cruz, California, USA). GAPDH was used as an internal control for the normalization of protein expression. […] Phosphorylated eIF2α has been known to inhibit the synthesis of various proteins participating in tumorigenesis.

[9] = system: LoVo-OXAR cells; settings: 2000 μg/ml, 24 hours, versus control
Experimental: (§4) To evaluate whether the compound (II) induces apoptosis of cancer cells, terminal deoxynucleotidyl transferase dUTP nick-end labeling (TUNEL) assay was employed to detect apoptosis. In brief, LoVo-parental cells and LoVo-OXAR cells were treated with 500 μg/ml and 2000 μg/ml of the compound (II), respectively, for 24 hours before they were subject to TUNEL assay (In Situ Cell Death Detection Kit; Roche Applied Science, Indianapolis, IN, USA) and nuclear counterstain with 0.1 mg/ml 4′,6-diamidino-2-phenylindole (DAPI, Sigma-Aldrich, St. Louis, MO, USA). Lovo-parental or LoVo-OXAR cells treated with 0 μg/ml of the compound (II) were set as control groups. TUNEL-positive cells were examined by Olympus CKX53 microscope (Olympus, Shinjuku-ku, Tokyo, Japan).

[10] = system: LoVo-parental cells; settings: 500 μg/ml, 24 hours, versus control
Experimental: as §4

[11] = system: EMT markers in LoVo-parental cells; settings: immunofluorescence
Excerpt: as §2
(§5) The cells were then permeabilized with 0.1% Triton X-100 in 0.1% sodium citrate and the well was blocked with blocking buffer (2% bovine serum albumin), followed by immunofluorescence staining. The cells were incubated with primary antibodies against vimentin and E-cadherin for 24 hours at 4° C. and subsequently incubated with fluorescent secondary antibodies for 1 hour at 25° C. before DAPI staining and observation using fluorescence microscopy.

[12] = system: EMT markers in LoVo-OXAR cells; settings: immunofluorescence
Excerpt: as §2, §5

[13] = system: LNCaP cells; settings: 24 hours
Experimental: Human prostate carcinoma LNCaP cells (commercially available from ATCC under the number CRL-1740) were cultured in RPMI-1640 medium (Gibco™, Thermo Fisher Scientific, Waltham, MA, USA) supplemented with 10% FBS.

[14] = system: A431 cells; settings: 1-1000 μg/ml, 48 hours
Experimental: Human epidermoid carcinoma A431 cells (commercially available from ATCC under the number CRL-1555) were cultured in DMEM supplemented with 10% FBS.

`CC(=O)[O-].CC(=O)[O-].CC(=O)[O-].CC(=O)[O-].CC(=O)[O-].CC(=O)[O-].O.O.O.O.O=[N+]([O-])[O-].[Cr+3].[Fe+3].[Fe+3].[OH-].[OH-]` [compound (II)] was tested, and the “viability of SCC-25 cells” value [1] was “reduced the viability of the OSCC cells in a dose-dependent manner”, the “migration rate of LoVo-OXAR cells” value [2] was “significantly decreased” and the “viability of PANC-1 cells” value ([3]; 0-2000 μg/ml) was “reduced the viability of both pancreatic cancer cells in a dose-dependent manner”. For the same compound, the “IC50 against PANC-1 cells” value ([3]; MTT) was about 1700 µg/mL, the “viability of MIA PaCa-2 cells” value ([4]; 0-2000 μg/ml) was “reduced the viability of both pancreatic cancer cells in a dose-dependent manner” and the “IC50 against MIA PaCa-2 cells” value ([4]; MTT) was “approximately 660 μg/ml”. For the same compound, the “invasion rate of LoVo-parental cells” value [5] was “significantly decreased”, the “E-cadherin mRNA expression” value [6] was “increased” and the “FN1 mRNA expression” value [6] was “decreased”. For the same compound, the “TJP1 mRNA expression” value [6] was “increased”, the “vimentin mRNA expression” value [6] was “decreased” and the “E-cadherin mRNA expression” value [7] was “increased”. The “FN1 mRNA expression” value [7] was “decreased”, the “TJP1 mRNA expression” value [7] was “increased” and the “vimentin mRNA expression” value [7] was “decreased”. For the same compound, the “eIF2α levels in LoVo-OXAR cells” value ([8]; western blot) was “decreased”, the “phosphorylation of eIF2α in LoVo-OXAR cells” value ([8]; western blot) was “increased” and the caspase-3 cleavage ([8]; LoVo-OXAR cells) was “activates caspase-3 cleavage”. The “expression of ER stress markers, including PERK, p-eIF2α, and ATF4” value ([8]; LoVo-OXAR cells) was “enhancing the expression of ER stress markers”, the “apoptotic cell death (TUNEL) in LoVo-OXAR cells” value [9] was “significant increase in apoptotic cell death” and the “apoptotic cell death (TUNEL) in LoVo-parental cells” value [10] was “significant increase in apoptotic cell death”. For the same compound, the “expression of E-cadherin” value [11] was “significantly increased”, the vimentin expression [11] was “significantly suppressed” and the “expression of E-cadherin” value [12] was “significantly increased”. The vimentin expression [12] was “significantly suppressed”, the “viability of LNCaP cells” value ([13]; 0-1600 μg/ml) was “reduced the viability of the prostate cancer cells in a dose-dependent manner” and the “IC50 against LNCaP cells” value ([13]; MTT) was “approximately 1033 μg/ml”. The “viability of A431 cells” value [14] was “reduced the viability of the A431 cells in a dose-dependent manner”.

Source: patent publication US20260199371A1, “COORDINATION COMPOUND, COMPOSITIONS, AND USES THEREOF FOR TREATING CANCERS” (HUEIYUAN BIOTECH LLC, priority 2023, published 2026)
